Converted amounts (≈) assume the structure as drawn. “And” between values parts separate entries of the source, which are not always exact repeats. Identical values can stand only once. Non-standard residues stand in square brackets, D forms with d. Residues, ends and D or L forms follow the SMILES beside them. *: point of attachment. Octanoyl = CCCCCCCC(=O)*; Aib = CC(C)(N)C(=O)O
Tests used:
[1] = test system: Acinetobacter baumannii ATCC 17978; conditions: for MBC Aba / MIC Aba: MHB, 5 × 10^5 CFU/mL, 18 h, 35 °C, triplicate
Description: (§1) The antibacterial activity of the peptides was initially assessed on a panel of representative Gram-positive and Gram-negative organisms of high clinical relevance and commonly responsible for bacterial infections in both animals and humans. Bacillus subtilis ATCC 6633 (Bsu) was also included as a rod-shaped model Gram-positive organism. This first panel comprised: Enterococcus faecalis ATCC 29212 (Efa); Streptococcus pyogenes ATCC 12344 (Spy); and Staphylococcus aureus ATCC 25923 (Sau); Gram-negative: Escherichia coli CCUGT (Eco), Klebsiella pneumoniae ATCC 13833 (Kpn), Acinetobacter baumannii ATCC 17978 (Aba), and Pseudomonas aeruginosa ATCC 27853 (Pae) (Table 2). Both the minimum inhibitory concentration (MIC, Table 2) and the minimum bactericidal concentration (MBC, Table S1, Supporting Material) were determined.
(§2) The minimum inhibitory concentration (MIC) and the minimum bactericidal concentration (MBC) of the compounds were determined in triplicate using Mueller–Hinton broth (MHB). […] Therefore, we decided to dissolve all peptides in DMSO to a final concentration of 25 mg/mL, for consistency. The bacteria inoculum was 5 × 10^5 CFU/mL, as recommended by CLSI (Document M07-A10, 2015). […] Reference-type strains, including representatives of both Gram-positive bacteria (Bacillus subtilis ATCC 6633, Enterococcus faecalis ATCC 29212, Staphylococcus aureus ATCC 25923, the methicillin-resistant Staphylococcus aureus ATCC 43300 (MRSA), Streptococcus pyogenes ATCC 12344) and Gram-negative bacteria (Escherichia coli CCUGT, Klebsiella pneumoniae ATCC 13833, Pseudomonas aeruginosa ATCC 27853, and Acinetobacter baumannii ATCC 17978), were acquired from ATCC or CCUG culture collections. Other antibiotic-resistant clinical isolates were present in our collection at the University Teaching Hospital (Azienda Ospedaliero-Universitaria Senese ‘Santa Maria alle Scotte’) in Siena, Tuscany, Italy. Specifically, MDR carbapenem-hydrolyzing class D β-lactamase-producing Acinetobacter baumannii and metallo-β-lactamase-producing Pseudomonas aeruginosa were used in this study (Table 4).

[2] = test system: Bacillus subtilis ATCC 6633; conditions: MHB, 5 × 10^5 CFU/mL, 18 h, 35 °C, triplicate
Description: as §1, §2

[3] = test system: Enterococcus faecalis ATCC 29212; conditions: MHB, 5 × 10^5 CFU/mL, 18 h, 35 °C, triplicate
Description: as §1, §2

Escherichia coli CCUGT = conditions: MHB, 5 × 10^5 CFU/mL, 18 h, 35 °C, triplicate
Description: as §1, §2

[4] = test system: Klebsiella pneumoniae ATCC 13833; conditions: MHB, 5 × 10^5 CFU/mL, 18 h, 35 °C, triplicate
Description: as §1, §2

[5] = test system: Pseudomonas aeruginosa ATCC 27853; conditions: MHB, 5 × 10^5 CFU/mL, 18 h, 35 °C, triplicate
Description: as §1, §2

[6] = test system: Staphylococcus aureus ATCC 25923; conditions: MHB, 5 × 10^5 CFU/mL, 18 h, 35 °C, triplicate
Description: as §1, §2

[7] = test system: Streptococcus pyogenes ATCC 12344; conditions: MHB, 5 × 10^5 CFU/mL, 18 h, 35 °C, triplicate
Description: as §1, §2

[8] = test system: A. baumannii SI-12 (OXA-23); conditions: MHB, 5 × 10^5 CFU/mL, 18 h, 35 °C, triplicate
Method: as §2

[9] = test system: A. baumannii SI-310 (OXA-24); conditions: colistin-resistant isolate; MHB, 5 × 10^5 CFU/mL, 18 h, 35 °C, triplicate
Method: as §2

[10] = test system: A. baumannii SI-648 (OXA-23, OXA-51-like); conditions: MHB, 5 × 10^5 CFU/mL, 18 h, 35 °C, triplicate
Method: as §2

[11] = test system: P. aeruginosa 101/1477 (IMP-1); conditions: MHB, 5 × 10^5 CFU/mL, 18 h, 35 °C, triplicate
Method: as §2

[12] = test system: P. aeruginosa 506/99 (VIM-2); conditions: MHB, 5 × 10^5 CFU/mL, 18 h, 35 °C, triplicate
Method: as §2

[13] = test system: P. aeruginosa VA-182/00 (VIM-2); conditions: MHB, 5 × 10^5 CFU/mL, 18 h, 35 °C, triplicate
Method: as §2

[14] = test system: P. aeruginosa VR-143/97 (VIM-1); conditions: MHB, 5 × 10^5 CFU/mL, 18 h, 35 °C, triplicate
Method: as §2

[15] = test system: S. aureus ATCC 43300 (MRSA); conditions: MHB, 5 × 10^5 CFU/mL, 18 h, 35 °C, triplicate
Method: as §2

[16] = test system: blood agar plate (Columbia CNA Agar); experiment: Hemolysis on blood agar plate; conditions: 35 ± 2 °C, 24 h
Method: Hemolysis zones were visually determined and measured. […] For two additional peptides (6 and 15), only a small hemolysis zone (diameter 4–5 mm) was visible, as compared to that of the positive control (Triton X-100, 13 mm).
Briefly, 2 μL of each peptide solution in DMSO (25 mg/mL), corresponding to 50 μg, was spotted on the surface of a blood agar plate (Columbia CNA Agar, Becton Dickinson Italia S.p.A., Florence, Italy). The plate was then incubated at 35 ± 2 °C for 24 h and visually inspected for the presence of hemolysis zones (see Figure S13, Supplementary Material). The experiment was performed in triplicate. Table 2 reports the average value of the diameter of hemolysis zones measured in each individual experiment. Triton X-100 was used as a positive control (diameter of the hemolysis zone: 13 mm), while DMSO was used as a negative control.
Figure S13. Implementation of the hemolysis test as described in Bechlars et al.. After spotting
2 µL (50 µg) of each compound at a random location on the blood agar plate and incubation at 35 ±
2 °C for 24 h, the plates were manually inspected for the presence of hemolysis zones. Triton X-100
and DMSO were used as the positive and negative controls, respectively. Results were interpreted
(1 picture or pasted object on this page, not shown here)

Compound	MBC Aba [1]	MIC Aba [1]	MBC Bsu [2]	MIC Bsu [2]	MBC Efa [3]	MIC Efa [3]	MIC Eco (Escherichia coli CCUGT)	MBC Kpn [4]	MIC Kpn [4]	MIC Pae [5]	MBC Sau [6]	MIC Sau [6]	MBC Spy [7]	MIC Spy [7]	MBC A. baumannii SI-12 (OXA-23) [8]	MIC A. baumannii SI-12 (OXA-23) [8]	MBC A. baumannii SI-310 (OXA-24) [9]	MIC A. baumannii SI-310 (OXA-24) [9]	MBC A. baumannii SI-648 (OXA-23, OXA-51-like) [10]	MIC A. baumannii SI-648 (OXA-23, OXA-51-like) [10]	further results
1-Oct-Aib-Gly-Leu-Aib-Lys-Lys-Leu-Aib-Lys-Ile-Leu-NH2 [Peptide 5b]	32 µg/mL	4 µg/mL	16 µg/mL	2 µg/mL	16 µg/mL	2 µg/mL	32 µg/mL	128 µg/mL	32 µg/mL	16 µg/mL	32 µg/mL	8 µg/mL	32 µg/mL	2 µg/mL	8 µg/mL	4 µg/mL	4 µg/mL	2 µg/mL	4 µg/mL	4 μg/mL and 4/4 μg/mL	MIC against A. baumannii, in molar units ([1]; corresponding to 2 and 8 μg/mL): 1.8 to 7.2 µM; MBC Eco (Escherichia coli CCUGT): 128 µg/mL; MBC Pae [5]: 128 µg/mL; MBC P. aeruginosa 101/1477 (IMP-1) [11]: 8 µg/mL; MIC P. aeruginosa 101/1477 (IMP-1) [11]: 8 µg/mL; MBC P. aeruginosa 506/99 (VIM-2) [12]: 32 µg/mL; MIC P. aeruginosa 506/99 (VIM-2) [12]: 8 µg/mL; MBC P. aeruginosa VA-182/00 (VIM-2) [13]: 32 µg/mL; MIC P. aeruginosa VA-182/00 (VIM-2) [13]: 8 µg/mL; MBC P. aeruginosa VR-143/97 (VIM-1) [14]: 32 µg/mL; MIC P. aeruginosa VR-143/97 (VIM-1) [14]: 16 µg/mL and 8 µg/mL; MBC S. aureus ATCC 43300 (MRSA) [15]: 2 µg/mL; MIC S. aureus ATCC 43300 (MRSA) [15]: 2 µg/mL
CCCCCCCC(=O)NC(C)(C)C(=O)N[C@@H](CCCCN)C(=O)N[C@@H](CC(C)C)C(=O)NC(C)(C)C(=O)NCC(=O)NCC(=O)N[C@@H](CC(C)C)C(=O)NC(C)(C)C(=O)NCC(=O)N[C@H](C(=O)N[C@@H](CC(C)C)C(N)=O)[C@@H](C)CC [Peptide 2, 1-Oct-Aib-Lys-Leu-Aib-Gly-Gly-Leu-Aib-Gly-Ile-Leu-NH2] (Octanoyl-[Aib]KL[Aib]GGL[Aib]GIL-NH2)	16 µg/mL (≈ 13.9 µM)	16 µg/mL (≈ 13.9 µM)	16 µg/mL (≈ 13.9 µM)	4 µg/mL (≈ 3.48 µM)	8 µg/mL (≈ 6.95 µM)	4 µg/mL (≈ 3.48 µM)	> 128 µg/mL	> 128 µg/mL	64 µg/mL (≈ 55.6 µM)	> 128 µg/mL	8 µg/mL (≈ 6.95 µM)	8 µg/mL (≈ 6.95 µM)	4 µg/mL (≈ 3.48 µM)	4 µg/mL (≈ 3.48 µM)	32 µg/mL (≈ 27.8 µM)	32 μg/mL and 32/32 μg/mL	32 µg/mL (≈ 27.8 µM)	32 μg/mL and 32/32 μg/mL	32 µg/mL (≈ 27.8 µM)	16 µg/mL (≈ 13.9 µM)	MIC P. aeruginosa 101/1477 (IMP-1) [11]: > 128 µg/mL; MIC P. aeruginosa 506/99 (VIM-2) [12]: > 128 µg/mL; MIC P. aeruginosa VA-182/00 (VIM-2) [13]: > 128 µg/mL; MIC P. aeruginosa VR-143/97 (VIM-1) [14]: > 128 µg/mL; MBC S. aureus ATCC 43300 (MRSA) [15]: 4 µg/mL (≈ 3.48 µM); MIC S. aureus ATCC 43300 (MRSA) [15]: 2 µg/mL (≈ 1.74 µM); Hemolysis (class) ([16]; 50 μg peptide (2 μL of 25 mg/mL in DMSO) spotted on blood agar, visual, triplicate): +; Hemolysis (d, diameter of hemolysis zone) ([16]; 50 μg spotted on blood agar, average of triplicate): 8 mm

Source: article PMC10178204, “Peptaibol Analogs Show Potent Antibacterial Activity against Multidrug Resistant Opportunistic Pathogens” (International Journal of Molecular Sciences, 2023)
